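Values below derive from 48-hour exposures of cells grown in 96-well plates, with endpoints linearly interpolated between the two concentrations bracketing the appropriate inhibition level. GI50 is the concentration that inhibits growth by half. Definition used: TGI = concentration required for complete inhibition of growth.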
Key:
Test in all cases: NCI-60 cell line screen, 48 h
LOX IMVI melanoma = test system: LOX IMVI melanoma
MDA-MB-231 breast = test system: MDA-MB-231 breast
SF-539 CNS = test system: SF-539 CNS
BT-549 breast = test system: BT-549 breast
M14 melanoma = test system: M14 melanoma
KM12 colon = test system: KM12 colon
HCT-15 colon = test system: HCT-15 colon
SW-620 colon = test system: SW-620 colon
MALME-3M melanoma = test system: MALME-3M melanoma
NCI-H522 lung = test system: NCI-H522 lung

SMILES | GI50 (LOX IMVI melanoma) [µM] | TGI (LOX IMVI melanoma) [µM] | GI50 (MDA-MB-231 breast) [µM] | TGI (MDA-MB-231 breast) [µM] | GI50 (SF-539 CNS) [µM] | TGI (SF-539 CNS) [µM] | GI50 (BT-549 breast) [µM] | TGI (BT-549 breast) [µM] | GI50 (M14 melanoma) [µM] | TGI (M14 melanoma) [µM] | GI50 (KM12 colon) [µM] | TGI (KM12 colon) [µM] | GI50 (HCT-15 colon) [µM] | TGI (HCT-15 colon) [µM] | GI50 (SW-620 colon) [µM] | TGI (SW-620 colon) [µM] | GI50 (MALME-3M melanoma) [µM] | TGI (MALME-3M melanoma) [µM] | GI50 (NCI-H522 lung) [µM] | TGI (NCI-H522 lung) [µM]
COc1ccc(/C=C/C(=O)c2cc(OC)c(OC)c(OC)c2)cc1OCC(=O)Nc1nc2ccc(OC(F)(F)F)cc2s1 | 0.47 | 1.95 | 2.01 | 5.01 | 0.293 | 1.18 | 2.71 | 29.6 | 1.72 | 4.52 | 1.51 | 4.19 | 0.407 | 10.9 | 1.08 | > 100 | 2.69 | 13.5 | 0.671 | 3.36
CC(=O)O[C@H]1C(=O)[C@@]2(C)C(C(OC(=O)c3ccccc3)[C@]3(O)C[C@H](OC(=O)C(OC(=O)CCCC(=O)NCCCN(C)C)C(NC(=O)c4ccccc4)c4ccccc4)C(C)=C1C3(C)C)C1(OC(C)=O)COC1C[C@@H]2O (stereo not given in full) | – | 19.2 | – | 13.8 | – | 0.0184 | – | 31.9 | – | 25 | – | 3.19 | – | 19.2 | – | 22.4 | – | 20.8 | – | < 0.0105

Reference: PubChem BioAssay (NCI)
